# Legend:
# [1] = biological target: T1, dihydropyrimidine dehydrogenase (DPD) (Homo sapiens, UniProt Q12882); assay: 5-Vinyluracil, 5-iodouracil and gimeracil as stabilizer of 5-FU in spiked donor blood; assay type: biochemical; details: 500 ng/mL 5-FU; 5-iodouracil 10/40 μg/mL, 5-vinyluracil 5/20 μg/mL, gimeracil 300/1,200 ng/mL; 45 minutes room temperature (FIG. 3)
# T1 construct: from tissue; host or cells: donor whole blood (K2EDTA), plasma separated from it, and WBC/buffy coat
# T1 sequence (Q12882 4-1025): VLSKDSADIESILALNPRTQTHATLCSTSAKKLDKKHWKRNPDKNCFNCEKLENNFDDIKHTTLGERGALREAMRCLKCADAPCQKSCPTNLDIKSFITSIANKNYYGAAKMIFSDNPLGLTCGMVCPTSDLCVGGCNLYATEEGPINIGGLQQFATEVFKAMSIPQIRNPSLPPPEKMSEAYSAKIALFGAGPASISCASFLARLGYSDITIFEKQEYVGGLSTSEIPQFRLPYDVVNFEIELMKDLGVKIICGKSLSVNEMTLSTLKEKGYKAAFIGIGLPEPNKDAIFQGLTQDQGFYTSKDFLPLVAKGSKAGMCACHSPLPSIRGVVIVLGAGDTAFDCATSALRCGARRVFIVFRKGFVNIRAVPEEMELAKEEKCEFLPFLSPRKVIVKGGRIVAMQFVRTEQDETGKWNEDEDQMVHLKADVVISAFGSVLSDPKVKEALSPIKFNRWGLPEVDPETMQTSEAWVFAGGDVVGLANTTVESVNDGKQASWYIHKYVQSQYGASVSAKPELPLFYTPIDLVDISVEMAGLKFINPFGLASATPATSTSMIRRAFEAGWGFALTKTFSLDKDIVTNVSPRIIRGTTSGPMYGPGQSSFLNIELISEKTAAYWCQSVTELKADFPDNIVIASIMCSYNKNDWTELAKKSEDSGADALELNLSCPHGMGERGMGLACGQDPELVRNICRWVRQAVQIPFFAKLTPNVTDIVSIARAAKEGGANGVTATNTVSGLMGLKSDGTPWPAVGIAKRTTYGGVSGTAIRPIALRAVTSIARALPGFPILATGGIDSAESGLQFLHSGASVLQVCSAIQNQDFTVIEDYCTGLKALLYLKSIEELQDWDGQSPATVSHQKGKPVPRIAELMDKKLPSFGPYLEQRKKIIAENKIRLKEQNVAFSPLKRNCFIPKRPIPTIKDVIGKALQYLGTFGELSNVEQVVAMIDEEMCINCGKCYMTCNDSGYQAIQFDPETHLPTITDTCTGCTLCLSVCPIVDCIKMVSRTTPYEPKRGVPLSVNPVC
# Description: (§1) In the following illustrative examples, 5-FU was measured using an antibody-based agglutination assay on the Olympus AU680 Analyzer using an antibody disclosed in U.S. Pat. No. 7,205,116. Specifically, the concentration of 5-FU in a sample is determined based on the absorbance of a sample, which is determined by the amount of aggregation by the nanoparticles. The system requires two reagents, which when mixed in the absence of free 5-FU will form large aggregates of nanoparticles and scatter light to result in a higher absorption value. In the presence of free 5-FU, the agglutination reaction becomes somewhat inhibited and scattering of light is less, causing a lower absorption value. The instrument is calibrated twice monthly, and a curve is generated (Absorbance vs. 5-FU concentration). Absorbance values from individual samples are compared against this curve to determine concentration.
# (§2) Generally in the agglutination assay, 95 μl of a buffer containing 5-FU-labeled amino-dextran is pipetted to a cuvette, followed by 7 μL of a filtered plasma sample. The sample and reagent are mixed and then incubated for about 3.5 minutes. 95 μl of 5-FU antibody-conjugated nanoparticles is pipetted into the cuvette and mixed. The complete reaction incubates for about 6.2 minutes. A series of 27 measurements at 600 nm are taken at regular intervals by the AU680 analyzer throughout this process, and 5-FU concentration is calculated using the measurements from two specific time points.
# Three tubes of blood (spray-on K2EDTA tubes, 10 mL) was drawn from each of six donors, and blood tubes were gently inverted several times to mix anti-coagulant. Blood was pooled and kept separate by donor. An aliquot of each blood sample was transferred to a new conical tube, and a calculated volume of stock 5-FU (at 200 ng/μL) was spiked into each blood sample for a final concentration of 500 ng/mL 5-FU. Each blood sample was aliquotted to a set of four tubes (5 mL blood per tube). Each set of tubes was different, but included a combination of the conditions below: […]
# [2] = biological target: T1, dihydropyrimidine dehydrogenase (DPD); assay: Eniluracil as stabilizer of 5-FU in spiked donor blood (5-FU agglutination immunoassay); assay type: biochemical; details: eniluracil 4000 or 1000 ng/mL final in blood, DMSO; 500 ng/mL 5-FU; room temperature 45 minutes or 24 hours (FIG. 2)
# Description: as §1
# as §2, with “95 μl of 5-FU antibody-conjugated nanoparticles is pipetted into the cuvette and mixed. The complete reaction incubates for about 6.2 minutes.” left out, “points. […]” for “points.”
Compound,stabilizing 5-FU in blood samples [1],preventing degradation of 5-FU in blood samples [2]
O=c1[nH]cc(I)c(=O)[nH]1 [5-iodouracil],effective,–
C=Cc1c[nH]c(=O)[nH]c1=O [5-vinyluracil],effective,–
C#Cc1c[nH]c(=O)[nH]c1=O [eniluracil],–,effective

# Source: patent US8440442B2, “Method of assaying 5-FU” (Myriad Genetics, Inc, priority 2009, dated 2013)
